Columns and labels:
serotonin reuptake site = serotonin reuptake site (Homo sapiens, UniProt P31645); settings: cited from earlier work
[1] = Study 2: single-dose pharmacokinetics in severe hepatic impairment and matched healthy controls; settings: for AUC(0-t) / AUC(0-inf) / Cmax / Tmax / half-life: both, human, po, 20 mg; for AUC(0-inf): AUC0-∞; for AUC(0-inf) / Cmax / Tmax / half-life: vilazodone 20 mg single oral dose
Method: The pharmacokinetics, tolerability, and safety of vilazodone were investigated in two separate trials involving participants with hepatic impairment, compared with healthy controls. An Open-label, parallel-group, single-dose pharmacokinetic studies, a single, oral dose of vilazodone (20 mg with increased hardness) was administered to participants with mild, moderate, or severe hepatic impairment or individually matched controls. Outcomes included pharmacokinetic parameters and safety (vital signs, clinical laboratory evaluations, ECG, and adverse events [AEs]). Plasma samples were analyzed using validated LC/MS/MS methods.
Data from two, open-label, parallel-group, single-dose pharmacokinetic studies investigated single-dose vilazodone (20 mg with increased hardness) in participants with hepatic impairment and normal hepatic function. The first study (Study 1) included participants with mild or moderate hepatic impairment and healthy controls. The second study (Study 2) included participants with severe hepatic impairment or healthy participants. These studies were both designed in accordance with the FDA guidance for evaluation of pharmacokinetics in the presence of hepatic impairment. The differences between the study protocols were minimal, so both methodologies are described together, with any differences noted below.
Participants were men and women, 18 to 70 years of age, with a body mass index (BMI) of 18-42 kg/m^2. Women were not pregnant or breastfeeding and agreed to utilize a medically accepted form of contraception during the study (as did men in Study 2). In Study 2, participants were also required to be non-smokers or light smokers (fewer than 10 cigarettes per day; there was no stipulation in Study 1) and to have a sitting pulse rate of 50-100 bpm at screening and prior to dosing on Day 1. […] Each healthy control was matched with a hepatically impaired participant. Control participants in the Study 1 were matched with a hepatically impaired individual according to age (±10 years), sex, and BMI (±15%). Control participants in Study 2 were matched with a hepatically impaired individual according to age (±5 years), sex, and weight (±10%).
Participants with hepatic dysfunction were classified according to the Child-Pugh hepatic dysfunction staging system as having mild (5-6 points) or moderate (7-9 points) hepatic impairment (Study 1), or severe impairment (10-15 points; Study 2). Participants with severe impairment also had chronic liver disease and/or compensated cirrhosis, as evidenced by liver biopsy, computerized tomography or ultrasonic evidence of hepatic fibrosis, clinical evidence of chronic liver disease, or a colloid shift on a liver-spleen scan. Exclusion criteria included the following: a clinical diagnosis or history of depression; treatment with antidepressants, anxiolytics, psychoactive medications (including herbal supplements), other serotonergic drugs, or drugs that inhibit CYP3A4 (eg, ketoconazole, diltiazem, macrolide antibiotics); a hypersensitivity to vilazodone or other SSRIs or 5-HT agonists; history or evidence of alcohol or substance abuse, cancer, human immunodeficiency virus, hepatitis B (Study 1 and healthy controls, both studies) hepatitis C (healthy controls, both studies), or other clinically significant illnesses or medical conditions. Participants with severe hepatic impairment were excluded if they had bleeding diathesis, advanced ascites requiring large-volume paracentesis within 1 week of dosing, esophageal bleeding within the previous 8 weeks, history of portosystemic shunt or hepatic transplant, or evidence of hepatic encephalopathy, hepatorenal syndrome, or other evidence of rapid hepatic deterioration.
Participants were not allowed to have previously taken vilazodone or participated in any clinical investigation requiring repeated blood draws within 60 days of dosing, or donated blood or plasma within 60 or 30 days, respectively.

[2] = Severe impairment/control, 20 mg single dose, participants who vomited excluded
[3] = plasma, Control matched to Severe Impairment n = 8
[4] = plasma, Severe Impairment n = 4 (who did not vomit)

serotonin reuptake site, sequence (P31645 whole entry): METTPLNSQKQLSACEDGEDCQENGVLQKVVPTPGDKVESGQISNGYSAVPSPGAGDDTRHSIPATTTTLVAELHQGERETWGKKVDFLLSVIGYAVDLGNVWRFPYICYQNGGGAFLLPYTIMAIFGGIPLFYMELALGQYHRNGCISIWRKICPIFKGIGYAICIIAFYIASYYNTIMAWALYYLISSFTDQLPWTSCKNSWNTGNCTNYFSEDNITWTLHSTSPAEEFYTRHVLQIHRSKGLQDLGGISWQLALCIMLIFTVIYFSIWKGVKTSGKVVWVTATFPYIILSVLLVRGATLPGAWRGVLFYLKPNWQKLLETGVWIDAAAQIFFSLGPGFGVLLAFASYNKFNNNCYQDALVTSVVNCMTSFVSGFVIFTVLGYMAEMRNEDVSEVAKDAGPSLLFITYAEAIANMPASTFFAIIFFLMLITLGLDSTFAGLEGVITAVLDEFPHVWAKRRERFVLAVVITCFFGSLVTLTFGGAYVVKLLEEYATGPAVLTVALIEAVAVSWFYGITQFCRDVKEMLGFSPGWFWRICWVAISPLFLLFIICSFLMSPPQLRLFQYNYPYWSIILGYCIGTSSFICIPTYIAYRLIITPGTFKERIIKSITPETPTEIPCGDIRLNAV

Cl.N#Cc1ccc2[nH]cc(CCCCN3CCN(c4ccc5oc(C(N)=O)cc5c4)CC3)c2c1 [Vilazodone, 1-[4-(5-cyanoindol-3-yl)butyl]-4-(2-carbamoyl-benzofuran-5-yl)-piperazine hydrochloride]
binding affinity to serotonin reuptake site (serotonin reuptake site): high affinity
AUC0-t, Ratio of Geometric Means (%) [1, 2]: 96.9%
AUC0-∞, Ratio of Geometric Means (%) [1, 2]: 95.8%
Cmax, Ratio of Geometric Means (%) [1, 2]: 75.2%
AUC(0-t) ([1]; in vivo): 642 ± 96.9 ng·h/mL
AUC(0-t) ([1]; plasma): 694 ± 262 ng·h/mL
AUC(0-inf) [1, 3]: 731 ± 267 ng·h/mL
AUC(0-inf) [1, 4]: 670 ± 94.8 ng·h/mL
Cmax [1, 3]: 35 ± 11.8 ng/mL
Cmax [1, 4]: 25.3 ± 3.8 ng/mL
Tmax ([1]; plasma, Tmax (mean), Control matched to Severe Impairment n = 8): 4.2 ± 1.3 h
Tmax ([1]; plasma, Tmax (mean), Severe Impairment n = 4 (who did not vomit)): 4.8 ± 2.2 h
Tmax ([1]; plasma, Tmax, Median, Control matched to Severe Impairment n = 8): 4.5 h
Tmax ([1]; plasma, Tmax, Median, Severe Impairment n = 4 (who did not vomit)): 4 h
half-life ([1]; plasma, t1/2, Control matched to Severe Impairment n = 8): 30.1 ± 13.8 h
half-life ([1]; plasma, t1/2, Severe Impairment n = 4 (who did not vomit)): 29.8 ± 4.8 h
mean Cmax lower than in healthy controls ([1]; severe hepatic impairment vs healthy controls, 20 mg single dose): approximately 25%
Mean unbound drug clearance (CLu/F) lower vs matched controls ([1]; severe impairment group): 33%
